The test system of series [1] is SUM149. The experiment in a line: CellTiter-Glo 72 h cytotoxicity assay, SUM149. The class given is cell-based. The settings on record: Homo sapiens; for EC50: SUM149, CTG assay, 72 h; for IC50: calculated from SUM149 EC50. The text has this:
(§1) First, topological polar surface area (tPSA), a widely used molecular descriptor that provides insight into compound absorption and membrane penetration, was theoretically calculated for these compounds along with the estimated c log P (partition coefficient) or log P to further assess their global therapeutic potential.[18],[19] Lipophilicity, a measurable and predictable physical property, can provide practical guidance in designing compounds with improved molecular properties.[20] The tPSA sums the contribution of the surface area of polar atoms, enabling us to determine whether the compounds are more likely to be cell membrane permeable. The aqueous solubility was measured by ultraviolet/visible (UV/vis) spectroscopy.[21] […] EP shares an improved cLogP, but still relatively high from a desirable drug candidate (2.5–3.5). […] Compound 4 has a higher c log P, while compounds 5–10 have lower c log P values. To determine LiPE (lipophilicity efficiency), the following formula was used: LiPE = pIC50 – log P, according to established methods.[22],[23] […] The obtained EC50 values for the newly generated EP derivatives were within a similar range for other derivatives previously described against TNBC models.[17]
(§2) The following stable human cell lines were utilized for this study: SUM149 and MDA-MB-231 (breast cancer models) and BJ (human normal fibroblast, foreskin). Cells were purchased from BioIVT or the American Type Culture Collection (ATCC). Cells were cultured in F-12-Nutrient Mixture (SUM149), DMEM (MDA-MB-231), or EMEM (BJ) medium supplemented with 10% fetal bovine serum (Sigma-Aldrich, St. Louis, MO) and 2 mmol of L-glutamine, at 37 °C in a humidified 5% CO2 atmosphere (no antibiotics) as indicated by the manufacturer. Cell cultures were grown to 80–90% confluence before use, except where otherwise specified. Our cell lines are authenticated every 3 months using the CellCheck service (Idexx BioResearch, Westbrook, ME). Cells were tested for mycoplasma prior to use (MycoAlert detection Kit Lonza LT07–318) and discarded if they tested positive. A cell proliferation assay was performed using the CellTiter-Glo (Promega Corp., Madison, WI) luminescent cell viability assay kit. Cells were detached with trypsin, counted, and seeded in white polystyrene flat-bottom sterile 96-well tissue culture-treated plates (catalog no. 3917, Corning, Glendale, Arizona) and incubated overnight at 37 °C. MDA-MB231, SUM149, and BJ cells were seeded into 96-well plates at concentrations experimentally determined (0.4 × 10^4, 0.25 × 10^4, and 0.3 × 10^4 cells per well, respectively) to ensure logarithmic growth during the duration of the experiment and to prevent adverse effects on cell growth by DMSO exposure. The plates were incubated for 12 h before treatment. Stock solutions of test compounds (10 mM in DMSO) in nine 3-fold serial dilutions were dispensed. The final concentration of DMSO was 0.3% (v/v) in each well. The positive control used was staurosporine (10 μM) as the kill-all control, and the negative control used is DMSO as we have published. Staurosporine is a potent alkaloid inducer of various cell death modalities but primarily apoptosis, making it a reliable positive control for viability assays. The plates were incubated for 72 h and then quenched with CTG at 50 μL per well at RT. Plates were then incubated at RT for 20 min and centrifuged at 1000 rpm for 1 min. Luminescence was read on a CLARIOstar Plus plate reader (BMG LabTech, Ortenberg, Germany).
Three or four technical replicates were conducted for each experimental condition, and a minimum of three independent experiments were conducted for each assay. In vitro ADME values were expressed as mean ± standard deviation (SD) of at least three independent experiments. One-way analysis of variance (ANOVA) was adopted for comparisons among groups using the GraphPad Prism 10.2.3 (GraphPad Software, San Diego, CA). A difference of P < 0.05 was considered as statistically significant. […]

In series [2] the test system is MDA-MB-231. The experiment in a line: CellTiter-Glo 72 h cytotoxicity assay, MDA-MB-231. Conditions: Homo sapiens, CTG assay, read-out: MDA-MB231 (EC50). The class given is cell-based. The procedure: as §2
(§3) Three or four technical replicates were conducted for each experimental condition, and a minimum of three independent experiments were conducted for each assay. In vitro ADME values were expressed as mean ± standard deviation (SD) of at least three independent experiments. One-way analysis of variance (ANOVA) was adopted for comparisons among groups using the GraphPad Prism 10.2.3 (GraphPad Software, San Diego, CA). A difference of P < 0.05 was considered as statistically significant. Data are expressed as mean ± SEM. For CTG, the mean luminescence of each experimental treatment group was normalized as a percentage of the mean intensity of untreated controls (DMSO as vehicle). EC50 values were calculated from dose–response curve fitting via nonlinear regression using GraphPad Prism 10.2.3 (GraphPad Software, San Diego, CA). A therapeutic index (TI) between normal and tumor cell lines can be determined (EC50 non-neoplastic cell line BJ)/(EC50 cancer cell line). In vivo studies were analyzed using mixed-effects regression models to compare the changes in tumor volume over time by treatment group. Tumor volume reduction was compared using ANOVA with repeated measures, and all data was considered significant when P < 0.05.

A short description of series [3]: Aqueous solubility by UV/vis absorbance. It counts as physicochemical. The settings on record: kinetic from dmso stock.
Description: as §1
Briefly, clear 96-well PS plates with lids (catalog no. 3903, Corning, Glendale, Arizona) were used for spectrophotometric determination of absorbance with a CLARIOstar Plus plate reader (BMG LabTech, Ortenberg, Germany) to determine at which concentration the compounds are precipitating out of solution. Decrease in transmittance of 2% or higher was considered significant. Compound solutions of 10 mM in DMSO were prepared followed by a serial dilution series, which were vortexed to ensure the solutions were homogeneous. The 96-well plate was then prepared with distilled H2O and allowed to equilibrate for 1.5 h. Then, the plate was placed in a CLARIOstar Plus plate reader or Cytation C10 (Biotek, Agilent) and set to detect absorbance at 220–700 nm. Each well was read individually. Three replicate assays were conducted for each experimental condition, and a minimum of three independent experiments were conducted.

In series [4] the test system is BJ. The experiment in a line: CellTiter-Glo 72 h cytotoxicity assay, BJ normal fibroblasts. The class given is cell-based. The settings on record: Homo sapiens, CTG assay, noncancerous fibroblasts. The procedure: as §2, §3
A short description of series [5]: Caco-2 permeability assay. It counts as in vitro ADME. Conditions: human. The protocol:
It was performed in the 96-well Transwell system with a modified method.[36] Caco-2 cells were maintained at 37 °C in a humidified incubator with an atmosphere of 5% CO2. The cells were cultured in MEM containing 20% FBS in […], 100 units/mL penicillin, and 100 μg/mL of streptomycin. The Caco-2 cells were seeded onto inserts of a 96-well plate at a density of 0.5 × 10^5 cells/insert and cultured in the MEM containing 20% FBS for 7 days. Each cultured monolayer on the 96-well plate was washed twice with HBSS/HEPES (10 mM, pH 7.4). The permeability assay was initiated by the addition of each compound solution (10 μmol/L) into inserts (apical side, A) or receivers (basolateral side, B). The Caco-2 cell monolayers were incubated for 2 h at 37 °C. Fractions were collected from receivers (if apical to basal permeability) or inserts (if basal to apical permeability), and concentrations were assessed by UPLC/MS (Waters; Milford, MA). All compounds were tested in triplicates. The A → B (or B → A) apparent permeability coefficients ([…]) of each compound were calculated using the equation Pappa = dQ/dt × 1/AC0. The flux of a drug across the monolayer is dQ/dt (μmol/s). The initial drug concentration on the apical side is C0 (μmol/L). The surface area of the monolayer is A (cm^2).

Series [6] is described as follows: Simulated gastric fluid (SGF) stability. The class given is in vitro ADME. Conditions: simulated gi fluid; simulated gastric fluid; read-out: SGF stability t1/2 (converted). The procedure:
The simulated gastric fluid (SGF) assay is an important element in determining the overall drug-like potential of compounds.[29],[30] Anecdotal studies of oral consumption of extracts by humans indicate positive outcomes of digestion of mixtures of EP and its related natural products found in G. lucidum.[2] […] Chlorambucil was used as positive control as previously described.[32],[33] […] Caco-2 permeability studies were conducted to validate and to provide information on EP’s ability to cross the intestinal barrier and its potential for interactions with drug transporters.[36]−[39] The rate of transport in both directions (A-B and B-A) across the cell monolayer enables an efflux ratio (B-A/A-B) to be determined, enabling us to determine if a compound undergoes active efflux (efflux ratio ≥2).

A short description of series [7]: Plasma stability assay (mouse). The settings on record: male, Balb/c, mouse, plasma.
Description: Briefly, pooled blood from 3 animals for experiment (male Balb/c 6–8w from the division of laboratory animal medicine in-house breeding colony) was collected, and the heparinized plasma was prepared. Plasma and test compounds were added to individual wells of a 96-well microtiter plate. Compounds were incubated at 37 °C for the provided time points. All tests were performed in triplicates. The test compound was incubated with plasma at six different time points. The reaction was terminated by methanol containing an internal standard. After centrifugation, the concentration of the test compound in the supernatant was quantified by LC-MS/MS.
Plasma stability assay: Briefly, pooled blood from 3 animals for experiment (male Balb/c 6-8w
from the division of laboratory animal medicine in-house breeding colony) was collected, and
the heparinized plasma was prepared. Plasma and test compounds were added to the individual
wells of a 96-well microtiter plate. Compounds were incubated at 37°C for the provided time
points. All tests were performed in triplicates. Then, the test compound was incubated with
plasma at six different time points. The reaction was terminated by the addition of methanol
containing an internal standard. After centrifugation, the concentration of the test compound in
the supernatant was quantified by LC-MS/MS. The percentage of test compound remaining at
compounds are known to be metabolized by plasma esterases,1 and were also incubated with
each batch of test compound.
A standard protocol and MS method was used for the plasma stability experiment. The extraction
procedure for plasma/tissue samples and the spiked plasma/tissue calibration standards were
identical: A 25 µL of study sample or spiked plasma/tissue calibration standard was added to
individual pre-labeled micro-centrifuge tubes followed by 100 µL of internal standard prepared
in Acetonitrile (Albendazole, 500 ng/mL) was added except for blank, where 100 µL of
Acetonitrile was added. Samples were vortexed for 5 minutes. Samples were centrifuged for 5
minutes at a speed of 4000 rpm at 4°C. Following centrifugation, 100 µL of clear supernatant
was transferred in 96 well plates and analyzed using LC-MS/MS mode. The LC system
comprises of a binary pump that can mix two mobile phases: A = Water+0.1% formic acid; B =
acetonitrile +0.1%formic acid. The system was operated in gradient mode using a 6 minute
min, 10-90% A to B in 5.5-6 min, and then hold at this gradient, using a Phenomenex Luna, 150
X 4.6 mm, 5 µm column. Source Parameter: positive, Ion Spray Voltage 5500, Temperature
550C, interface heater on.
Series [8] can be described thus: Plasma stability assay (human).

≈ marks a conversion by molar mass, not a printed value. Like-named read-outs stand apart in the source and are kept apart here. A value given as a limit tells only on which side of the number the result lay.

For orientation: EC50 means the concentration at which the effect is half-maximal. The term IC50 denotes the concentration at which inhibition is half-maximal. By solubility is commonly meant the dissolved amount per volume that the medium holds. As a reminder, the Papp A→B is the apparent permeability from the apical to the basolateral side of a cell layer. By Papp B→A is commonly meant how fast a substance crosses the layer from the basolateral side.

For the molecule `CC(C)[C@@H](C)/C=C/[C@@H](C)[C@H]1CC[C@H]2C3=CC=C4C[C@@H](O)CC[C@]4(C)[C@H]3CC[C@]12C` [Compound 1, Ergosterol], in series [1], a half-maximal response (EC50) required 61 µM and the IC50 was 61.7 µM. Also, the EC50 in series [2] is above 120 µM. Also, in series [3] (distilled water, distilled H2O, UV/vis, read-out: solubility limit), the solubility at […] was determined as 0.59 µg/mL (≈ 1.49 µM).

`C=CC(=O)O[C@H]1CC[C@]2(C)[C@H]3CC[C@]4(C)[C@@H]([C@H](C)/C=C/[C@H](C)C(C)C)CC[C@H]4[C@@]34C=C[C@]2(C1)OO4` [Compound 4]: the EC50 in series [1] was 31 µM; in series [4] it was 92.5 µM; in series [2], 47.6 µM. In addition, the IC50 in series [1] is 31.6 µM. The solubility at […] in series [3] (water) stood at 24.1 µg/mL (≈ 50 µM).

Regarding `CC(C)[C@@H](C)C1OC1[C@@H](C)[C@H]1CC[C@@H]2[C@]1(C)CC[C@H]1[C@]23C=C[C@]2(C[C@@H](O)CC[C@]12C)OO3` (stereo partly drawn) [Compound 5], the EC50 in series [1] turned out to be 2.74 µM; in series [4] it was 70.4 µM; in series [2], 15.7 µM. Also, the IC50 in series [1] was 2.75 µM. This molecule also returned a solubility at […] in series [3] (water) of 5.56 µg/mL (≈ 12.5 µM).

`CC(C)[C@@H](C)C1OC1[C@@H](C)[C@H]1CC[C@@H]2[C@]1(C)CC[C@H]1[C@]23C=C[C@]2(C[C@@H](OS(=O)(=O)O)CC[C@]12C)OO3` (stereo partly drawn) [Compound 5a]: the results for the EC50 in series [1], in series [4] and in series [2] were 2.24 µM, 48 µM and 7.37 µM, respectively. Moreover, in series [1], the IC50 is 2.29 µM. For the same molecule, the solubility at […] in series [3] (water) was determined as 26.2 µg/mL (≈ 49.9 µM).

With `CC(C)[C@@H](C)/C=C/[C@@H](C)[C@H]1CC[C@@H]2[C@]1(C)CC[C@H]1[C@@]23OO[C@@]2(C[C@@H](O)CC[C@]12C)C(O)C3O` (stereo partly drawn) [Compound 6], the figures for the EC50 in series [1], in series [4] and in series [2] were 14.5 µM, 135 µM and 25.4 µM, respectively. The half-maximal inhibitory concentration (IC50) in series [1] is 14.8 µM. The molecule further registered a solubility at […] in series [3] (water) of 23.1 µg/mL (≈ 50 µM).

For `CC(C)[C@@H](C)C(O)C(O)[C@@H](C)[C@H]1CC[C@@H]2[C@]1(C)CC[C@H]1[C@@]23OO[C@@]2(C[C@@H](O)CC[C@]12C)C(O)C3O` (stereo partly drawn) [Compound 8], the figures for the EC50 in series [1], in series [4] and in series [2] were 6.42 µM, 172 µM and 29.7 µM, respectively. Moreover, the IC50 in series [1] is 6.46 µM. This molecule registered a solubility at […] in series [3] (water) of 24.8 µg/mL (≈ 50 µM).

With `CC(C)[C@@H](C)/C=C/[C@@H](C)[C@H]1CC[C@@H]2[C@]1(C)CC[C@H]1[C@]23C=C[C@]2(C[C@@H](OS(=O)(=O)O)CC[C@]12C)OO3` [Compound 9], the EC50 was 2.7 µM in series [1], 50 µM in series [4] and 3.47 µM in series [2]. Moreover, in series [1], the IC50 is 2.75 µM. Besides, the solubility at […] in series [3] (water) came out at 15.5 µg/mL (≈ 30.5 µM).

`CC(C)[C@@H](C)/C=C/[C@@H](C)[C@H]1CC[C@@H]2[C@]1(C)CC[C@H]1[C@@]23OO[C@@]2(C[C@@H](OS(=O)(=O)O)CC[C@]12C)C(OS(=O)(=O)O)C3OS(=O)(=O)O` (stereo partly drawn) [Compound 10]: the 50% effective concentration (EC50) in series [1] turned out to be 3.11 µM; in series [4] it was 77.9 µM; in series [2] it was 10.7 µM. Further, the IC50 in series [1] was 3.09 µM. In series [3] (water), the solubility at […] turned out to be 17.8 µg/mL (≈ 25.4 µM).

For `NC(=O)N1c2ccccc2C=Cc2ccccc21` [carbamazepine, reference compound], in series [5] (Caco-2, pH 7.4, Caco-2, read-out: efflux ratio (B2A/A2B)), the efflux ratio at 2 h, 10 µmol/L is 0.74. Besides, the Papp A→B at 2 h, 10 µmol/L in series [5] (Caco-2, pH 7.4, apical to basolateral) stood at 37.6 ×10⁻⁶ cm/s. The same molecule showed a Papp B→A at 2 h, 10 µmol/L in series [5] (Caco-2, pH 7.4, basolateral to apical) of 27.7 ×10⁻⁶ cm/s.

On to `O=C(O)CCCc1ccc(N(CCCl)CCCl)cc1` [chlorambucil, reference compound], for which the half-life in series [6] is 18.4 h.

Consider `CC1CC(OC(=O)C(O)c2ccccc2)CC(C)(C)N1C` (stereo not drawn) [eucatropine, reference compound], for which the half-life is 1.87 h in series [7] and 0.41 h in series [8].

Values taken from PMC11375702, “Early Preclinical Studies of Ergosterol Peroxide and Biological Evaluation of Its Derivatives” (ACS Omega, 2024).
